# Laboratory results published in ChEMBL document CHEMBL1201862, “PubChem BioAssay data set” (2004).
#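 Grown in 96-well plates, cells were treated for 48 hours with each compound at five concentrations. Insufficient inhibition: endpoint recorded as highest concentration tested. At the GI50, growth is halved.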 Activity calls are given as the source filed them. Cut-off read from the data, not from the text of the source: active = GI50 up to about 1.1 µM and inactive = higher.
# Columns and labels:
# Test in all cases: NCI tumour cell line growth inhibition, 48 h
# A549 = tested on: A549
# CAKI-1 = tested on: CAKI-1
# HCT-116 = tested on: HCT-116
# HCT-15 = tested on: HCT-15
# HL-60 = tested on: HL-60
# HOP-92 = tested on: HOP-92
# IGROV-1 = tested on: IGROV-1
# MCF7 = tested on: MCF7
# MDA-MB-231 = tested on: MDA-MB-231
# Malme-3M = tested on: Malme-3M
# NCI-H460 = tested on: NCI-H460
# NCI/ADR-RES = tested on: NCI/ADR-RES
# SF-268 = tested on: SF-268
# SF-295 = tested on: SF-295
# SK-MEL-28 = tested on: SK-MEL-28
# SK-MEL-5 = tested on: SK-MEL-5
# SK-OV-3 = tested on: SK-OV-3
# SN12C = tested on: SN12C
# U-251 = tested on: U-251
# UACC-62 = tested on: UACC-62
Structure (SMILES),GI50 (A549),GI50 (CAKI-1),GI50 (HCT-116),GI50 (HCT-15) [µM],GI50 (HL-60),GI50 (HOP-92),GI50 (IGROV-1),GI50 (MCF7),GI50 (MDA-MB-231),GI50 (Malme-3M),GI50 (NCI-H460),GI50 (NCI/ADR-RES),GI50 (SF-268),GI50 (SF-295),GI50 (SK-MEL-28),GI50 (SK-MEL-5),GI50 (SK-OV-3),GI50 (SN12C),GI50 (U-251),GI50 (UACC-62)
C=C1C(=O)OC2C1CCC(C)C1C=CC(=O)C12C (stereo not given),7.76 µM (inactive),2.97 µM (inactive),1.74 µM (inactive),1.82,1.41 µM (inactive),4.1 µM (inactive),6.14 µM (inactive),3.92 µM (inactive),2.19 µM (inactive),2.5 µM (inactive),4.84 µM (inactive),1.41 µM (inactive),8.61 µM (inactive),6.81 µM (inactive),2.05 µM (inactive),3.33 µM (inactive),28 µM (inactive),3.33 µM (inactive),11.9 µM (inactive),1.79 µM (inactive)
CC1OC2/C=C\CC(O)C(C)(C)C3CCC(C)C4(O3)O[B-]35OC(C(=O)OC1C2)C1(OC(CCC1C)C(C)(C)C(O)C/C=C\C1CC(OC(=O)C4O3)C(C)O1)O5 (stereo not given),2.55 µM (inactive),7.6 µM (inactive),2.01 µM (inactive),5.37,1.06 µM (active),2.94 µM (inactive),13.9 µM (inactive),2.01 µM (inactive),1.99 µM (inactive),1.86 µM (inactive),1.6 µM (inactive),3.2 µM (inactive),2.02 µM (inactive),1.8 µM (inactive),1.77 µM (inactive),2.21 µM (inactive),4.47 µM (inactive),2.69 µM (inactive),1.33 µM (inactive),2.01 µM (inactive)
O=c1ccc2cc(O)c(O)cc2o1 [ESCULETIN],> 100 µM (inactive),> 100 µM (inactive),> 100 µM (inactive),> 100,> 100 µM (inactive),> 100 µM (inactive),> 100 µM (inactive),> 100 µM (inactive),> 100 µM (inactive),> 100 µM (inactive),> 100 µM (inactive),> 100 µM (inactive),> 100 µM (inactive),> 100 µM (inactive),> 100 µM (inactive),> 100 µM (inactive),> 100 µM (inactive),> 100 µM (inactive),> 100 µM (inactive),> 100 µM (inactive)
